Measured values taken from patent US11357873B2, “Chiral cyclen compounds and their uses” (THE HONG KONG POLYTECHNIC UNIVERSITY, priority 2016, dated 2022).

Columns and labels:
[1] = Absorption and photoluminescence (quantum yield, lifetime, q); type: physicochemical; parameters: λabs(max): unit not given here; settings: for R, I(5D0 → 7F2)/I(5D0 → 7F1): asymmetry ratio, 10 in MeOH; for R, I(5D0 → 7F2)/I(5D0 → 7F1) / λabs(max): room temperature, 11 in DMSO; for q (Parker's) / q (Horrocks'): from lifetimes in H2O and D2O; for q (Parker's): first value of cell; for q (Horrocks'): second value of cell; for ΦEuEu (%): intrinsic quantum yield, calculated value; for τD2O/MeOD / τH2O/MeOH: luminescence lifetime, 5D0 → 7F2 transition; for τD2O/MeOD: D2O (MeOD for 10); for τH2O/MeOH: H2O (MeOH for 10); for ΦDMSO (%): luminescence quantum yield in DMSO; for ΦH2O/MeOH (%): luminescence quantum yield relative to quinine sulfate in 0.1M H2SO4, H2O (MeOH for 10, insoluble in H2O); for ΦHEPES (%): luminescence quantum yield, 0.1M HEPES buffer, pH 7.4; for λabs(max): 10 measured in MeOH; for ηsens (%): sensitization efficiency, calculated according to ref 61
Description: (§1) Absorption spectra of complexes were measured with HP UV-8453 spectrophotometer. Steady-state room temperature photoluminescence measurements were performed with an Edinburgh Instrument FLSP920 spectrophotometer equipped with a Xe900 continuous xenon lamp, μF920 microsecond flash lamp and a single photon counting photomultiplier tube. Spectra were corrected with the bundled F900 software. Solution-state measurements were conducted using quartz curettes of 10 mm path length. CPL measurements were conducted on a custom built spectrometer^63 (in Durham University) consisting of a laser driven light source (Energetiq EQ-99 LDLS, spectral range 170 to 2100 nm) coupled to an Acton SP2150 monochromator (600 g/nm, 300 nm Blaze) that allows excitation wavelengths to be selected with a 6 nm FWHM band-pass. The collection of the emitted light was facilitated (90° angle set up, 1 cm path length quartz curette) by a Lock-In Amplifier (Hinds Instruments Signaloc 2100) and Photoelastic Modulator (Hinds Instruments PEM-90). The differentiated light was focused onto an Acton SP2150 monochromator (1200 g/nm, 500 nm Blaze) equipped with a high sensitivity cooled Photo Multiplier Tube (H10723-20 Extended red-multialkali PMT based photosensor (5V)). Spectra were recorded using a 5 spectral average sequence in the range of 570-720 nm with 0.5 nm spectral intervals and 500 μs integration time. The recorded CPL spectrum underwent a 25% Fourier transformation smoothening protocol using Origin 8.0 Software (Origin Labs) to enhance appearance (all calculations were carried out using raw spectral data).
The shift in absorption is caused by electronic communication between the electropositive lanthanide center and the chromophore. […] These are not observed for 11, however, as we believe the steric effect of the planar phenyl ring of the benzyl group could not be alleviated by appropriate rotation, whereas that of the isobutyl group could.
The luminescence quantum yields of the complexes are decent in water and HEPES solution, although they are much higher in DMSO, due to the nonradiative quenching by O—H oscillators of water molecules in the second coordination sphere (Table 6). The intrinsic quantum yields^61—a calculated value evaluating the quantum yield of Eu(III) via direct metal excitation—of the complexes are calculated, and, as expected, the values are very similar, except for 10. The higher value corroborates with the shift in absorption maximum, for which we believe the reason is due to a shorter europium—chromophore distance and better interaction. On the other hand, the sensitization efficiencies of the complexes vary. […] The relatively remarkable ηsens of 13 is attributed to its structural rigidity, as both the tetraaza backbone and the acetate arms are modified with a chrial substituent, i.e., double chirality. The double chirality is also attributed for the increase in luminescence quantum yield compared to that of 12a/12b.

[2] = Circularly polarized luminescence (CPL), dissymmetry factor glum; type: physicochemical; settings: for glum ΔJ = 1 (λ) DMSO / glum ΔJ = 3 (λ) DMSO / glum ΔJ = 1 (λ) H2O / glum ΔJ = 3 (λ) H2O: wavelength in parentheses in the cell
Description: as §1, with “Steady-state” for “Absorption spectra of complexes were measured with HP UV-8453 spectrophotometer. Steady-state”, “time.” for “time. The recorded CPL spectrum underwent a 25% Fourier transformation smoothening protocol using Origin 8.0 Software (Origin Labs) to enhance appearance (all calculations were carried out using raw spectral data).”

Row | Structure (SMILES) | R, I(5D0 → 7F2)/I(5D0 → 7F1) [1] | q (Parker's) [1] | q (Horrocks') [1] | ΦEuEu (%) [1] | τD2O/MeOD [1] | τH2O/MeOH [1] | ΦDMSO (%) [1] | ΦH2O/MeOH (%) [1] | ΦHEPES (%) [1] | λabs(max) [1] | ηsens (%) [1] | glum ΔJ = 1 (λ) DMSO [2] | glum ΔJ = 3 (λ) DMSO [2] | glum ΔJ = 3 (λ) H2O [2] | further results
1 | COc1cc(OC)c(C#Cc2cc(CN3CCN(CC(=O)[O-])CCN(CC(=O)[O-])CCN(CC(=O)[O-])CC3)nc(P(C)(=O)[O-])c2)c(OC)c1.[Eu+3] [Complex 7] | 2.52 | 0.06 | 0.01 | 23.6% | 1.44 ms | 1.01 ms | 47.0% | 7.6% | 6.9% | 353 | 32.3% |  |  |  | 
2 | COc1cc(OC)c(C#Cc2cc(CN3CCN(C(C)C(=O)[O-])CCN(C(C)C(=O)[O-])CCN(C(C)C(=O)[O-])CC3)nc(P(C)(=O)[O-])c2)c(OC)c1.[Eu+3] (single isomer, unassigned) [Complex 12a] |  |  |  |  |  |  |  |  |  |  |  |  |  |  | R, I(5D0 → 7F2)/I(5D0 → 7F1) ([1]; listed as 12a): 2.74; q (Parker's) ([1]; listed as 12a): 0.07; q (Horrocks') ([1]; listed as 12a): 0.01; ΦEuEu (%) ([1]; listed as 12a): 26.6%; τD2O/MeOD ([1]; listed as 12a): 1.70 ms; τH2O/MeOH ([1]; listed as 12a): 1.12 ms; ΦDMSO (%) ([1]; listed as 12a): 46.4%; ΦH2O/MeOH (%) ([1]; listed as 12a): 12.7%; ΦHEPES (%) ([1]; listed as 12a): 12.4%; λabs(max) ([1]; listed as 12a): 352; ηsens (%) ([1]; listed as 12a): 47.0%; glum ΔJ = 1 (λ) DMSO ([2]; listed as 12a): −0.04 (591); glum ΔJ = 3 (λ) DMSO ([2]; listed as 12a): −0.04 (657); glum ΔJ = 1 (λ) H2O ([2]; listed as 12a): −0.03 (588); glum ΔJ = 3 (λ) H2O ([2]; listed as 12a): −0.05 (653)
3 | CCC1CN(C(C)C(=O)[O-])C(CC)CN(C(C)C(=O)[O-])C(CC)CN(C(C)C(=O)[O-])C(CC)CN1Cc1cc(C#Cc2c(OC)cc(OC)cc2OC)cc(P(C)(=O)[O-])n1.[Eu+3] (centres unmarked) [Complex 13] | 2.66 | 0.00 | 0.06 | 30.2% | 1.83 ms | 1.25 ms | 49.7% | 21.9% | 20.9% | 356 | 72.6% | −0.17 (588) | −0.29 (657) | −0.33 (652) | absolute glum 589 nm ([2]; aqueous solution): 0.23
4 | CC[C@H]1CN(CC(=O)[O-])[C@@H](CC)CN(Cc2cc(C#Cc3c(OC)cc(OC)cc3OC)cc(P(C)(=O)[O-])n2)[C@@H](CC)CN(CC(=O)[O-])[C@@H](CC)CN1CC(=O)[O-].[Eu+3] [Complex 8] | 2.43 | 0.10 | 0.02 | 26.0% | 1.76 ms | 1.12 ms | 50.0% | 14.0% | 14.0% | 356 | 53.8% | −0.18 (591) | +0.17 (657) | −0.28 (653) | glum ΔJ = 1 (λ) H2O [2]: −0.11 (591)
